Residue numbers refer to the chain shown, from its start.
Key:
Assay type in all cases: biochemical
HvExoI W286F mutant = biological target: T1, HvExoI W286F mutant (Hordeum vulgare, UniProt Q9XEI3, W311F); test: Relative rates of hydrolysis of poly-, oligosaccharides and aryl-glycosides; conditions: substance is the substrate, nd = activity not detected
T1 sequence (Q9XEI3 26-630 W311F): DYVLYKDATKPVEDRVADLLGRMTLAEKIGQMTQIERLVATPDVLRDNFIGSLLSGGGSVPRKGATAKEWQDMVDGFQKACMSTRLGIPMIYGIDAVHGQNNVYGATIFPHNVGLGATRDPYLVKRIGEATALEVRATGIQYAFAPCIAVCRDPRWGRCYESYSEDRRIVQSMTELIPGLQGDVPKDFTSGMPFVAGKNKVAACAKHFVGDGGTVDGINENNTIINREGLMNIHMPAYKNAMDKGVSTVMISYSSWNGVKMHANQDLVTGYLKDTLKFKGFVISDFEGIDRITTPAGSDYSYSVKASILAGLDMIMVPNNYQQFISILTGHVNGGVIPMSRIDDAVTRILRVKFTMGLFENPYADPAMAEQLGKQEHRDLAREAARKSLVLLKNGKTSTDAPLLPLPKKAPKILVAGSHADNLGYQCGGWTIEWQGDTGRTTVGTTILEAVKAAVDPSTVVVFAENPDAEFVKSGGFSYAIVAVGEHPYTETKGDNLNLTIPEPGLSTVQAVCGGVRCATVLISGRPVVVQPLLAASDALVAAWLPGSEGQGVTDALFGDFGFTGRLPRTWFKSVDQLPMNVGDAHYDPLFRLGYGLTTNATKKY
In short: (§1)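 First, pH dependence was tested in McIlvaine buffers at pH 3.5–8.5 and 30 °C. Next, temperature dependence was tested in 100 mM sodium acetate, pH 5.25, at 0–80 °C for 15 min, with both scans on 0.2% (w/v) 4NP-Glc. Relative substrate rates then used 50 pmoles of enzyme.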

HvExoI W434A mutant = biological target: T2, HvExoI W434A mutant (Hordeum vulgare, UniProt Q9XEI3, W459A); test: as above; conditions: substance is the substrate, nd = activity not detected
T2 sequence (Q9XEI3 26-630 W459A): T1 sequence (Q9XEI3 26-630 W311F) with F286W, W434A
In short: as §1

HvExoI W434F mutant = biological target: T3, HvExoI W434F mutant (Hordeum vulgare, UniProt Q9XEI3, W459F); test: as above; conditions: substance is the substrate, nd = activity not detected
T3 sequence (Q9XEI3 26-630 W459F): T1 sequence (Q9XEI3 26-630 W311F) with F286W, W434F
In short: as §1

HvExoI W434H mutant [1] = biological target: T4, HvExoI W434H mutant (Hordeum vulgare, UniProt Q9XEI3, W459H); test: as above; conditions: substance is the substrate
T4 sequence (Q9XEI3 26-630 W459H): T1 sequence (Q9XEI3 26-630 W311F) with F286W, W434H
In short: as §1

WT HvExoI = WT HvExoI (Hordeum vulgare, UniProt Q9XEI3); test: Steady-state apparent kinetic constants with substrates; conditions: substance is the substrate
Method: (§2) Dependency of activities of WT and mutant HvExoI on pH (McIlvaine buffers in the pH range of 3.5–8.5 at 30 °C) and temperature (100 mM sodium acetate buffer, pH 5.25, temperature range 0–80 °C, 15 min incubations) were determined using 0.2% (w/v) 4NP-Glc[21],[59]. Relative rates of hydrolysis of β-linked poly-, oligosaccharides, and aryl-glucosides were determined using near-homogenous HvExoI at 50 pmoles. […] Kinetic parameters were calculated from the analyses of Michaelis-Menten plots with Grafit 7.0.3[62] and processed by a proportional weighted fit, using nonlinear regression. The relative rates of hydrolysis, kinetic, and inhibition data were rounded to one or two decimal points (Supplementary Tables 2–4).

HvExoI W434H mutant [2] = biological target: T4, HvExoI W434H mutant; test: as above; conditions: substance is the substrate
Method: as §2

Chain of WT HvExoI (Q9XEI3 entry or part of it): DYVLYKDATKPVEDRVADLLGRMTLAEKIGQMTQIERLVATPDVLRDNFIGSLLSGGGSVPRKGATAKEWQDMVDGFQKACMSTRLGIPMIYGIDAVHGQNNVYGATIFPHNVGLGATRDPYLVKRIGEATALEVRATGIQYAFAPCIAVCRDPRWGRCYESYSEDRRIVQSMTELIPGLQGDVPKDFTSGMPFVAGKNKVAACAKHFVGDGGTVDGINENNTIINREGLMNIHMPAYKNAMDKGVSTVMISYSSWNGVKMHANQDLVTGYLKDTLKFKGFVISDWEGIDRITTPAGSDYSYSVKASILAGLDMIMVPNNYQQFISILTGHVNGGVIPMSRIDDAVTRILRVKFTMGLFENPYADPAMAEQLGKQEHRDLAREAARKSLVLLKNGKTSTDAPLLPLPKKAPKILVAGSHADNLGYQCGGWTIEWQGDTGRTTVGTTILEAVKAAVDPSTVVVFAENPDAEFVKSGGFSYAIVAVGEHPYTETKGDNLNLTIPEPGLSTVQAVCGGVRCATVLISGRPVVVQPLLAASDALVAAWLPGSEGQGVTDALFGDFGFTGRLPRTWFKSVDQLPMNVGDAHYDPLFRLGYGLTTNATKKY

**Q.** Which “Activity (relative rate of hydrolysis)” value (HvExoI W286F mutant) does the source give for `OC[C@H]1O[C@@H](O[C@H]2[C@H](O)[C@@H](CO)OC(O)[C@@H]2O)[C@H](O)[C@@H](O)[C@@H]1O` (stereo partly shown) [Laminaribiose] here?
**A.** 0.6 ± 0.04 μmole/min per mg protein

**Q.** And the “Activity (relative rate of hydrolysis)” value (HvExoI W434A mutant)?
**A.** 0.5 ± 0.03 μmole/min per mg protein

**Q.** And the “Activity (relative rate of hydrolysis)” value (HvExoI W434F mutant)?
**A.** 14.9 ± 1.7 μmole/min per mg protein

**Q.** And the “Activity (relative rate of hydrolysis)” value (HvExoI W434H mutant [1])?
**A.** 0.8 ± 0.04 μmole/min per mg protein

**Q.** What about the Km (WT HvExoI) of the same compound?
**A.** 1300 ± 120 µM

**Q.** What about the kcat (WT HvExoI) of the same compound?
**A.** 54.2 ± 6.9 s⁻¹

**Q.** With `OC[C@H]1O[C@@H](O[C@@H]2[C@@H](O)[C@H](O[C@H]3[C@H](O)[C@@H](CO)OC(O)[C@@H]3O)O[C@H](CO)[C@H]2O)[C@H](O)[C@@H](O)[C@@H]1O` (stereo partly shown) [Laminaritriose] as the compound, how does the “Activity (relative rate of hydrolysis)” value (HvExoI W286F mutant) read?
**A.** 1.3 ± 0.01 μmole/min per mg protein

**Q.** What about the “Activity (relative rate of hydrolysis)” value (HvExoI W434A mutant) of the same compound?
**A.** 0.9 ± 0.1 μmole/min per mg protein

**Q.** And the “Activity (relative rate of hydrolysis)” value (HvExoI W434F mutant)?
**A.** 18.4 ± 1.4 μmole/min per mg protein

**Q.** What about the “Activity (relative rate of hydrolysis)” value (HvExoI W434H mutant [1]) of the same compound?
**A.** 1.5 ± 0.04 μmole/min per mg protein

**Q.** Which results are given for laminarin?
**A.** Activity (relative rate of hydrolysis) (HvExoI W286F mutant): 1.1 ± 0.1 μmole/min per mg protein; Activity (relative rate of hydrolysis) (HvExoI W434A mutant): no activity; Activity (relative rate of hydrolysis) (HvExoI W434F mutant): 7.8 ± 0.4 μmole/min per mg protein; Activity (relative rate of hydrolysis) (HvExoI W434H mutant [1]): 0.7 ± 0.02 μmole/min per mg protein; Km (HvExoI W434H mutant [2]): 300 ± 20 µM; kcat (HvExoI W434H mutant [2]): 8.5 ± 0.9 s⁻¹; Km (WT HvExoI): 200 ± 20 µM; kcat (WT HvExoI): 42.1 ± 7.6 s⁻¹

**Q.** How did the “Activity (relative rate of hydrolysis)” value (HvExoI W286F mutant) turn out when `O=[N+]([O-])c1ccc(O[C@@H]2O[C@H](CO)[C@@H](O)[C@H](O)[C@H]2O)cc1` [4NP-Glc, 4-nitrophenyl β-D-glucopyranoside] was run?
**A.** 0.9 ± 0.01 μmole/min per mg protein

**Q.** And the “Activity (relative rate of hydrolysis)” value (HvExoI W434A mutant)?
**A.** 6.1 ± 0.1 μmole/min per mg protein

**Q.** What about the “Activity (relative rate of hydrolysis)” value (HvExoI W434F mutant) of the same compound?
**A.** 5.0 ± 0.01 μmole/min per mg protein

**Q.** What about the “Activity (relative rate of hydrolysis)” value (HvExoI W434H mutant [1]) of the same compound?
**A.** 2.4 ± 0.2 μmole/min per mg protein
